The results in this text go back to patent US12209092B2, “Inhibitors of GLI1 as therapeutic agents” (NEW YORK UNIVERSITY, priority 2018, dated 2025).

For the assay, the system named is Gli1-mediated transcription. Kind of assay: Gli1-mediated transcriptional luciferase reporter assay. The format is cell-based. As to conditions: Shh-LIGHT2 cells, antagonist mode, purmorphamine 1.5 μM stimulation, 24 h. The procedure:
Gli1-mediated transcriptional luciferase reporter assay was performed using Shh-LIGHT2 cells in order to evaluate the effects on activation and inhibition of Gli1-mediated transcription by the compounds of the disclosure. Brief assay procedure is provided below. […] Shh-LIGHT2 cells were harvested from about 80% confluent 10-cm dish using 0.25% Trypsin-EDTA solution. Medium was removed, and cells were washed with 5 mL DPBS and aspirated. Then, 1 mL 0.25% Trypsin-EDTA solution was added to a 10-cm dish. The dish was placed in the incubator for 1-3 minutes, or until cells have detached. 3 mL of cell growth medium (DMEM, 10% FBS, 1% PenStrep, 1% sodium pyruvate, and 1% GlutaMax) was added to the 10-cm dish, and the contents were transferred to a conical tube. […] The cell assay plate was removed from incubator after cells reached confluency. The culture medium was then manually removed from the cell plates, and the plates were centrifuged at 200 rpm for 30 seconds. […] After 30 min incubation of antagonist, cells were stimulated with agonist (purmorphamine, 5 μL, 1.5 μM final), then incubate for 24 h at 37° C./5% CO2. […] Luciferase assay: After incubation, the cell assay plate was allowed to acclimate to room temperature. Then, 20 μL of Duo-Glo® Luciferase Reagent (Promega) was added to each well of cell assay plate. The plate was briefly spun down, mixed, and incubated for 30 minutes at room temperature. The cell plate was read using luminometer for firefly luminescence activity. Then, 20 μL of Duo-Glo® Step&Glo® Reagent (Promega) was added to each well of cell assay plate. The plate was briefly spun down, mixed, and incubated for 30 minutes at room temperature. The cell plate was read using luminometer for Renilla luminescence activity. Ratio of firefly: Renilla luminescence was calculated for each well. The compound well ratio was normalized to the ratio from a control well.
(Reporter assays use an easily measured gene product as a stand-in for the process of interest.)

[1] abbreviates: firefly luminescence, read-out: Gli1 IC50 firefly.
Where [2] appears, read: ratio of firefly:Renilla luminescence, read-out: Gli1 IC50 firefly:Renilla ratio.

Read-outs that look alike come from different tables or passages of the source.

In the case of `CN1C2=C(CCN([C@@H]3CCc4cccc(Cl)c4C3)C2)NC1c1ccccc1Cl` (stereo partly drawn) [Example 18-R, 5-((R)-8-chloro-1,2,3,4-tetrahydronaphthalen-2-yl)-2-(2-chlorophenyl)-3-methyl-2,3,4,5,6,7-hexahydro-1H-imidazo[4,5-c]pyridine], the IC50 is less than 100 nM under setting [1] and less than 100 nM under setting [2].

For the molecule `CN1C2=C(CCN([C@H]3CCc4cccc(Cl)c4C3)C2)NC1c1ccccc1Cl` (stereo partly drawn) [Example 18-S, 5-((S)-8-chloro-1,2,3,4-tetrahydronaphthalen-2-yl)-2-(2-chlorophenyl)-3-methyl-2,3,4,5,6,7-hexahydro-1H-imidazo[4,5-c]pyridine], the IC50 by setting is: under setting [1], 100 to 490 nM; under setting [2], 100 to 490 nM.

As for `Clc1ccc2c(c1)CC(N1CCc3nc(-c4ccccc4Cl)[nH]c3C1)C2` (centres unmarked) [Example 19, 5-(5-chloro-2,3-dihydro-1H-inden-2-yl)-2-(2-chlorophenyl)-4,5,6,7-tetrahydro-3H-imidazo[4,5-c]pyridine], the IC50 by setting is: under setting [1], 100 to 490 nM; under setting [2], 100 to 490 nM.

Consider `O[C@@H]1Cc2ccccc2C[C@H]1N1CCc2nc(-c3ccccc3Cl)[nH]c2C1` [Example 20, (2R,3R)-3-(2-(2-chlorophenyl)-3,4,6,7-tetrahydro-5H-imidazo[4,5-c]pyridin-5-yl)-1,2,3,4-tetrahydronaphthalen-2-ol], for which the IC50 runs as follows: under setting [1], 1000 to 50000 nM; under setting [2], 1000 to 50000 nM.

Take `Clc1ccc2c(c1)CC(N1CCc3nc(-c4cccc(Cl)c4Cl)[nH]c3C1)CC2` (centres unmarked) [Example 21, 5-(7-chloro-1,2,3,4-tetrahydronaphthalen-2-yl)-2-(2,3-dichlorophenyl)-4,5,6,7-tetrahydro-3H-imidazo[4,5-c]pyridine]: the IC50 lay in the range of 500 to 990 nM under setting [1] and 500 to 990 nM under setting [2].

Turning to `Fc1ccc(-c2nc3c([nH]2)CN(C2CCc4ccc(Cl)cc4C2)CC3)c(Cl)c1` (centres unmarked) [Example 22, 5-(7-chloro-1,2,3,4-tetrahydronaphthalen-2-yl)-2-(2-chloro-4-fluorophenyl)-4,5,6,7-tetrahydro-3H-imidazo[4,5-c]pyridine], the IC50 lay in the range of 500 to 990 nM under setting [1] and 100 to 490 nM under setting [2].

As to `COc1ccc(-c2nc3c([nH]2)CN(C2CCc4ccc(Cl)cc4C2)CC3)c(Cl)c1` (centres unmarked) [Example 23, 5-(7-chloro-1,2,3,4-tetrahydronaphthalen-2-yl)-2-(2-chloro-4-methoxyphenyl)-4,5,6,7-tetrahydro-3H-imidazo[4,5-c]pyridine], the IC50 is, setting by setting: under setting [1], less than 100 nM; under setting [2], less than 100 nM.

`COc1ccc(Cl)c(-c2nc3c([nH]2)CN(C2CCc4ccc(Cl)cc4C2)CC3)c1` (centres unmarked) [Example 24, 5-(7-chloro-1,2,3,4-tetrahydronaphthalen-2-yl)-2-(2-chloro-5-methoxyphenyl)-4,5,6,7-tetrahydro-3H-imidazo[4,5-c]pyridine]: the IC50 was 100 to 490 nM under setting [1] and less than 100 nM under setting [2].

On to `Clc1cc(Cl)c2c(c1)CCC(N1CCc3nc(-c4ccccc4Cl)[nH]c3C1)C2` (centres unmarked) [Example 25, 2-(2-chlorophenyl)-5-(6,8-dichloro-1,2,3,4-tetrahydronaphthalen-2-yl)-4,5,6,7-tetrahydro-3H-imidazo[4,5-c]pyridine], for which the IC50 was 1000 to 50000 nM under setting [1] and 1000 to 50000 nM under setting [2].

As to `Clc1ccccc1-c1nc2c([nH]1)CN(C1CCc3cccc(Br)c3C1)CC2` (centres unmarked) [Example 26, 5-(8-bromo-1,2,3,4-tetrahydronaphthalen-2-yl)-2-(2-chlorophenyl)-4,5,6,7-tetrahydro-3H-imidazo[4,5-c]pyridine], the IC50 reads like this: under setting [1], less than 100 nM; under setting [2], 100 to 490 nM.

In the case of `Clc1ccccc1-c1nc2c([nH]1)CN(C1CCc3ccc(Br)cc3C1)CC2` (centres unmarked) [Example 27, 5-(7-bromo-1,2,3,4-tetrahydronaphthalen-2-yl)-2-(2-chlorophenyl)-4,5,6,7-tetrahydro-3H-imidazo[4,5-c]pyridine], the IC50 under setting [1] lay within 100 to 490 nM and the IC50 under setting [2] is less than 100 nM.

For `Clc1ccc2c(c1)CC(N1CCc3nc(-c4ccccc4Br)[nH]c3C1)CC2` (centres unmarked) [Example 28, 2-(2-bromophenyl)-5-(7-chloro-1,2,3,4-tetrahydronaphthalen-2-yl)-4,5,6,7-tetrahydro-3H-imidazo[4,5-c]pyridine], the IC50 under setting [1] is 100 to 490 nM and the IC50 under setting [2] is 100 to 490 nM.

Regarding `Clc1ccc2c(c1)CC(N1CCc3nc(-c4ccc(Br)cc4Cl)[nH]c3C1)CC2` (centres unmarked) [Example 29, 2-(4-bromo-2-chlorophenyl)-5-(7-chloro-1,2,3,4-tetrahydronaphthalen-2-yl)-4,5,6,7-tetrahydro-3H-imidazo[4,5-c]pyridine], the IC50 lay in the range of 500 to 990 nM under setting [1] and 100 to 490 nM under setting [2].

In the case of `Clc1ccc2c(c1)CC(N1CCc3nc(-c4cc(Br)ccc4Cl)[nH]c3C1)CC2` (centres unmarked) [Example 30, 2-(5-bromo-2-chlorophenyl)-5-(7-chloro-1,2,3,4-tetrahydronaphthalen-2-yl)-4,5,6,7-tetrahydro-3H-imidazo[4,5-c]pyridine], the IC50 under setting [1] fell in the range of 1000 to 50000 nM and the IC50 under setting [2] lay in the range of 500 to 990 nM.

For the molecule `Clc1ccccc1-c1nc2c([nH]1)CN(C1CCc3cc(C4CC4)ccc3C1)CC2` (centres unmarked) [Example 31, 2-(2-chlorophenyl)-5-(6-cyclopropyl-1,2,3,4-tetrahydronaphthalen-2-yl)-4,5,6,7-tetrahydro-3H-imidazo[4,5-c]pyridine], the IC50 under setting [1] lay in the range of 1000 to 50000 nM and the IC50 under setting [2] lay in the range of 500 to 990 nM.

As to `Cc1cn(-c2ccc3c(c2)CCC(N2CCc4nc(-c5ccccc5Cl)[nH]c4C2)C3)cn1` (centres unmarked) [Example 32, 2-(2-chlorophenyl)-5-(6-(4-methyl-1H-imidazol-1-yl)-1,2,3,4-tetrahydronaphthalen-2-yl)-4,5,6,7-tetrahydro-3H-imidazo[4,5-c]pyridine], the IC50 lay in the range of 1000 to 50000 nM under setting [1] and 1000 to 50000 nM under setting [2].

With `Clc1ccccc1-c1nc2c([nH]1)CN(C1CCc3ccc(C4CC4)cc3C1)CC2` (centres unmarked) [Example 34, 2-(2-chlorophenyl)-5-(7-cyclopropyl-1,2,3,4-tetrahydronaphthalen-2-yl)-4,5,6,7-tetrahydro-3H-imidazo[4,5-c]pyridine], the IC50 under setting [1] is 100 to 490 nM and the IC50 under setting [2] lay within 100 to 490 nM.

Consider `Clc1ccccc1-c1nc2c([nH]1)CN(C1CCc3ccc(C#CC4CC4)cc3C1)CC2` (centres unmarked) [Example 35, 2-(2-chlorophenyl)-5-(7-(cyclopropylethynyl)-1,2,3,4-tetrahydronaphthalen-2-yl)-4,5,6,7-tetrahydro-3H-imidazo[4,5-c]pyridine], for which the IC50 under setting [1] fell in the range of 1000 to 50000 nM and the IC50 under setting [2] lay in the range of 1000 to 50000 nM.

On to `Clc1ccccc1-c1nc2c([nH]1)CN(C1CCc3cccc(C4CC4)c3C1)CC2` (centres unmarked) [Example 36, 2-(2-chlorophenyl)-5-(8-cyclopropyl-1,2,3,4-tetrahydronaphthalen-2-yl)-4,5,6,7-tetrahydro-3H-imidazo[4,5-c]pyridine], for which the IC50 is, setting by setting: under setting [1], 1000 to 50000 nM; under setting [2], 500 to 990 nM.

For the molecule `Clc1ccc2c(c1)CC(N1CCc3nc(-c4ccc(C5CC5)cc4Cl)[nH]c3C1)CC2` (centres unmarked) [Example 37, 5-(7-chloro-1,2,3,4-tetrahydronaphthalen-2-yl)-2-(2-chloro-4-cyclopropylphenyl)-4,5,6,7-tetrahydro-3H-imidazo[4,5-c]pyridine], the IC50 is less than 100 nM under setting [1] and less than 100 nM under setting [2].

Take `Clc1cccc(-c2nc3c([nH]2)CN(C2CCc4ccc(Cl)cc4C2)CC3)c1` (centres unmarked) [Example 42, 5-(7-chloro-1,2,3,4-tetrahydronaphthalen-2-yl)-2-(3-chlorophenyl)-4,5,6,7-tetrahydro-3H-imidazo[4,5-c]pyridine]: the IC50 under setting [1] was in the range of 1000 to 50000 nM and the IC50 under setting [2] was 1000 to 50000 nM.

Regarding `Clc1ccccc1-c1nc2c([nH]1)CN(C1Cc3ccccc31)CC2` (centres unmarked) [Example 43, 5-(bicyclo[4.2.0]octa-1(6),2,4-trien-7-yl)-2-(2-chlorophenyl)-4,5,6,7-tetrahydro-3H-imidazo[4,5-c]pyridine], the IC50 by setting is: under setting [1], greater than 30000 nM; under setting [2], 1000 to 50000 nM.

Turning to `Fc1cccc(-c2nc3c([nH]2)CN(C2CCc4ccc(F)cc4C2)CC3)c1` (centres unmarked) [Example 51, 5-(7-fluoro-1,2,3,4-tetrahydronaphthalen-2-yl)-2-(3-fluorophenyl)-4,5,6,7-tetrahydro-3H-imidazo[4,5-c]pyridine], the IC50 fell in the range of 1000 to 50000 nM under setting [1] and 1000 to 50000 nM under setting [2].

With `Fc1ccccc1-c1nc2c([nH]1)CN(C1CCc3ncccc3C1)CC2` (centres unmarked) [Example 55, 6-(2-(2-fluorophenyl)-3,4,6,7-tetrahydro-5H-imidazo[4,5-c]pyridin-5-yl)-5,6,7,8-tetrahydroquinoline], the IC50 runs as follows: under setting [1], 1000 to 50000 nM; under setting [2], 1000 to 50000 nM.

With `Fc1ccccc1-c1nc2c([nH]1)CN(C1CCc3cc(Cl)ccc3C1)CC2` (centres unmarked) [Example 70, 5-(6-chloro-1,2,3,4-tetrahydronaphthalen-2-yl)-2-(2-fluorophenyl)-4,5,6,7-tetrahydro-3H-imidazo[4,5-c]pyridine], the IC50 under setting [1] was in the range of 1000 to 50000 nM and the IC50 under setting [2] was 1000 to 50000 nM.
